Results: patent US7642367B2, “Diamino-functional chalcones” (Lica Pharmaceuticals A/S, priority 2002, dated 2010)
≈ marks a conversion by molar mass, not a printed value.

Assays:
[1] = system: Bacteroides fragilis, Clostridium perfringens, Clostridium difficele; format: cell-based; details: single concentration of compound (100 μM)
[2] = system: L. major promastigotes; test: Leishmania promastigote assay (3H-thymidine)
[3] = Determination of solubility in phosphate buffer pH 7.4; format: physicochemical; details: aqueous buffer at pH 7.4
Procedure: Solubility of the compounds was determined by preparing a saturated solution of compound in 0.3 M phosphate buffer (pH 7.4±0.3) in a brown glass tube. The suspensions were rotated slowly for 24 hours. Aliquots were centrifuged for 10 minutes at 14.000 rpm and supernatants were diluted in 40% (v/v) acetonitrile in water prior to HPLC analysis. Concentrations of analytes were quantified against a standard curve and used as term of solubility.
The HPLC-UV method used for the assessment of solubility is the same as used in the in vitro metabolism assay.

[4] = Determination of metabolic stability (liver microsomes); format: in vitro ADME, Wistar rat; details: rat liver microsomes, 20 μM, 15 min at 37° C.
Procedure: incubations were performed with Wistar rat liver microsomes (0.25 mg/ml) in 2% sodium bicarbonate solution. NADP (0.13 mg/ml), glucose-6-phosphate (0.63 mg/ml) and glucose-6-phosophate dehydrogenase (0.38 units/ml) were used as NADPH generation system and UDPGA (0.48 mg/ml) was added to include the phase II reaction, glucuronic acid conjugation, in the assay. After 5 minutes of pre-incubation the reaction was started by addition of the test article to give a final concentration of 20 μM. Samples were incubated for 15 min at 37° C. and the reactions were terminated by addition of equal volumes of acetonitrile. Blank incubations were performed at the same concentration but without addition of microsomes. Both blank and microsome-containing samples were made in replicats of three. Prior to analysis samples were centrifuged for 10 min. at 3500 rpm, HPLC system:
Initial conditions were 40% mobile phase A (acetonitrile) and 60% mobile phase B (10 mM ammonium acetate pH 9.5). During the first 20 minutes, the mobile phase was changed via a linear gradient to 90% A and 10% B. This was followed by a 5 minutes linear gradient to initial conditions, which were maintained for 5 min. The flow rate was 0.20 ml/min and injection volume 10 μl.

[5] = system: Staphylococcus intermedius #2357 (clinical isolate); test: MIC determination in broth microdilution assay
[6] = system: Staphylococcus aureus ATCC29213; test: MIC determination in broth microdilution assay
[7] = system: Staphylococcus aureus ATCC33591 (resistant to methicillin); test: MIC determination in broth microdilution assay
[8] = system: Enterococcus faecalis ATCC29212; test: MIC determination in broth microdilution assay
[9] = system: Streptococcus pneumoniae #998 (clinical isolate); test: MIC determination in broth microdilution assay
[10] = system: Enterococcus faecium #17501 (vancomycin-resistant clinical isolate); test: MIC determination in broth microdilution assay
[11] = system: Eschericia coli ESS; test: MIC determination in broth microdilution assay; details: H: Eschericia coli ESS; NA: no activity
[12] = C: Staphylococcus intermedius #2357, NA: no activity
[13] = A: Staphylococcus aureus ATCC29213, NA: no activity
[14] = B: Staphylococcus aureus ATCC33591 (resistant to methicillin), NA: no activity
[15] = D: Enterococcus faecalis ATCC29212, NA: no activity
[16] = F: Streptococcus pneumoniae #998, NA: no activity
[17] = E: Enterococcus faecium #17501 (vancomycin-resistant), NA: no activity

Question: What does the source list for `CN(C)CCNc1cccc(C(=O)/C=C/c2ccc(Cl)cc2Cl)c1` [B039, (E)-3-(2,4-Dichloro-phenyl)-1-[3-(2-dimethylamino-ethylamino)-phenyl]-40 propenone]?
Answer: activity against anaerobic bacteria [1]: activity against all microorganisms within the test panel; IC50 ([2]; L. major): 1000 nM

Question: For `CCCCN(CCCC)c1cccc(/C=C/C(=O)c2ccccc2NCCCN(C)C)c1` [B033, (E)-3-(3-Dibutylamino-phenyl)-1-[2-(3-dimethylamino-propylamino)-phenyl]-propenone], which “activity against anaerobic bacteria” value [1] is on record?
Answer: Its value is “activity against all microorganisms within the test panel”.

Question: Which results are given for `CN(C)CCNc1ccc(C(=O)/C=C/c2ccc(Cl)cc2Cl)cc1` [B022, (E)-3-(2,4-Dichloro-phenyl)-1-[4-(2-dimethylamino-ethylamino)-phenyl]-propenone]?
Answer: activity against anaerobic bacteria [1]: activity against all microorganisms within the test panel; IC50 ([2]; L. major): 800 nM

Question: With `CCCCN(CCCC)c1ccc(OC)c(/C=C/C(=O)c2ccccc2NCCN(C)C)c1` [B038, (E)-3-(5-Dibutylamino-2-methoxy-phenyl)-1-[2-(2-dimethylamino-ethylamino)-phenyl]-propenone] as the compound, how does the “activity against anaerobic bacteria” value [1] read?
Answer: The value was “activity against all microorganisms within the test panel”.

Question: For `COc1ccc(C(=O)/C=C/c2cc(-c3cc(C)cc(C)c3)ccc2N(C)CCN(C)C)c(CN(C)C)c1` [B114, (E)-3-{4-[(2-Dimethylamino-ethyl)-methyl-amino]-3′,5′-dimethyl-biphenyl-3-yl}-1-(2-dimethylaminomethyl-4-methoxy-phenyl)-propenone], which Solubility [3] is on record?
Answer: Its Solubility is 4300 µg/mL (≈ 8.61 mM).

Question: For `Cc1cc(C)cc(-c2ccc(N(C)CCN(C)C)c(/C=C/C(=O)c3cccc(NCCN(C)C)c3)c2)c1` [B113, (E)-1-[3-(2-Dimethylamino-ethylamino)-phenyl]-3-{4-[(2-dimethylamino-ethyl)-methyl-amino]-3′,5′-dimethyl-biphenyl-3-yl}-propenone], which “Metabolic turn-over in vitro” value [4] is on record?
Answer: The value was 4%.

Question: With `COc1ccc(-c2ccccc2)cc1/C=C/C(=O)c1ccc(N(C)CCN(C)C)cc1` [B073, (E)-1-{4-[(2-Dimethylamino-ethyl)-methyl-amino]-phenyl}-3-(4-methoxy-biphenyl-3-yl)-propenone] as the compound, how does the “activity against anaerobic bacteria” value [1] read?
Answer: The value was “activity against all microorganisms within the test panel”.

Question: For `CN(C)CCCNc1cc(Br)cc(/C=C/C(=O)c2ccccc2CN(C)C)c1` [B126, (E)-3-[3-Bromo-5-(3-dimethylamino-propylamino)-phenyl]-1-(2-dimethylaminomethyl-phenyl)-propenone], which Solubility [3] is on record?
Answer: Its Solubility is 8300 µg/mL (≈ 18.7 mM).

Question: With `Cc1ccccc1-c1ccc(N(C)CCN(C)C)c(/C=C/C(=O)c2ccccc2CN(C)C)c1` [B148, (E)-3-{4-[(2-Dimethylamino-ethyl)-methyl-amino]-2′-methyl-biphenyl-3-yl}-1-(2-dimethylaminomethyl-phenyl)-propenone] as the compound, how does the Solubility [3] read?
Answer: Its Solubility is 3300 µg/mL (≈ 7.24 mM).

Question: With `CCCCN(CCCC)c1ccc(/C=C/C(=O)c2cccc(NC(=O)CN(C)C)c2)cc1` [B089, (E)-N-{3-[3-(4-Dibutylamino-phenyl)-acryloyl]-phenyl}-2-dimethylamino-acetamide] as the compound, how does the MIC ([5]; Staphylococcus intermedius) read?
Answer: Its MIC is 4.7 µM (≈ 2.05 µg/mL).

Question: What about the MIC ([6]; Staphylococcus aureus, ATCC29213) of the same compound?
Answer: Its MIC is 4.7 µM (≈ 2.05 µg/mL).

Question: What about the MIC ([7]; Staphylococcus aureus, ATCC33591) of the same compound?
Answer: The MIC was 4.7 µM (≈ 2.05 µg/mL).

Question: And the MIC ([8]; Enterococcus faecalis, ATCC29212)?
Answer: The MIC was 9.4 µM (≈ 4.09 µg/mL).

Question: And the MIC ([9]; Streptococcus pneumoniae)?
Answer: The MIC was 37.5 µM (≈ 16.3 µg/mL).

Question: And the MIC ([10]; Enterococcus faecium)?
Answer: Its MIC is 9.4 µM (≈ 4.09 µg/mL).

Question: Which “Metabolic turn-over in vitro” value [4] does the source give for `COc1ccccc1-c1ccc(/C=C/C(=O)c2ccccc2CN(C)CCN(C)C)c(N2CCN(C)CC2)c1` [B216, (E)-1-(2-{[(2-Dimethylamino-ethyl)-methyl-amino]-methyl}-phenyl)-3-[2′-methoxy-3-(4-methyl-piperazin-1-yl)-biphenyl-4-yl]-propenone] here?
Answer: Its value is 6%.

Question: What does the source list for `COc1ccc(C(=O)/C=C/c2cc(-c3cc(C)cc(C)c3)ccc2N2CCN(C)CC2)c(F)c1` [B182, (E)-3-[3′,5′-Dimethyl-4-(4-methyl-piperazin-1-yl)-biphenyl-3-yl]-1-(2-fluoro-4-methoxy-phenyl)-propenone]?
Answer: MIC [5, 12]: 4.7 µM (≈ 2.16 µg/mL); MIC [6, 13]: 4.7 µM (≈ 2.16 µg/mL); MIC [7, 14]: 4.7 µM (≈ 2.16 µg/mL); MIC [8, 15]: 9.4 µM (≈ 4.31 µg/mL); MIC [11]: 75 µM (≈ 34.4 µg/mL); MIC [9, 16]: 18.8 µM (≈ 8.62 µg/mL); MIC [10, 17]: 4.7 µM (≈ 2.16 µg/mL); Metabolic turn-over in vitro [4]: 2%

Question: With `CCCN(CCC)c1cccc(/C=C/C(=O)c2ccccc2NCCN(C)C)c1` [B035, (E)-1-[2-(2-Dimethylamino-ethylamino)-phenyl]-3-(3-dipropylamino-phenyl)-propenone] as the compound, how does the “activity against anaerobic bacteria” value [1] read?
Answer: The value was “activity against all microorganisms within the test panel”.

Question: What does the source list for `COc1ccc(C(=O)/C=C/c2cc(-c3ccccc3OC)ccc2N2CCN(C)CC2)c(F)c1` [B083, (E)-1-(2-Fluoro-4-methoxy-phenyl)-3-[2′-methoxy-4-(4-methyl-piperazin-1-yl)-biphenyl-3-yl]-propenone]?
Answer: MIC [5, 12]: 9.4 µM (≈ 4.33 µg/mL); MIC [6, 13]: 4.7 µM (≈ 2.16 µg/mL); MIC [7, 14]: 9.4 µM (≈ 4.33 µg/mL); MIC [8, 15]: 18.8 µM (≈ 8.66 µg/mL); MIC [11]: 9.4 µM (≈ 4.33 µg/mL); MIC [9, 16]: 37.5 µM (≈ 17.3 µg/mL); MIC [10, 17]: 9.4 µM (≈ 4.33 µg/mL); IC50 ([2]; L. major): 500 nM

Question: Which “activity against anaerobic bacteria” value [1] does the source give for `CCCCc1ccc(/C=C/C(=O)c2ccc(N(C)CCN(C)C)cc2)cc1` [B060, (E)-3-(4-Butyl-phenyl)-1-{4-[(2-dimethylamino-ethyl)-methyl-amino]-phenyl}-propenone] here?
Answer: Its value is “activity against all microorganisms within the test panel”.

Question: Which Solubility [3] does the source give for `COc1ccccc1C(=O)/C=C/c1ccccc1N(C)CCN(C)C` [B056, (E)-3-{2-[(2-Dimethylamino-ethyl)-methyl-amino]-phenyl}-1-(2-methoxy-phenyl)-propenone] here?
Answer: Its Solubility is 3200 µg/mL (≈ 9.45 mM).

Question: With `CN(C)CCNc1ccc(C(=O)/C=C/c2cc(C(F)(F)F)cc(C(F)(F)F)c2)cc1` [B046, (E)-3-(3,5-Bis-trifluoromethyl-phenyl)-1-[4-(2-dimethylamino-ethylamino)-phenyl]-propenone] as the compound, how does the “activity against anaerobic bacteria” value [1] read?
Answer: The value was “activity against all microorganisms within the test panel”.

Question: With `COc1ccccc1-c1ccc(/C=C/C(=O)c2ccccc2CN(C)C)c(N2CCN(C)CC2)c1` [B096, (E)-1-(2-Dimethylaminomethyl-phenyl)-3-[2′-methoxy-3-(4-methyl-piperazin-1-yl)-biphenyl-4-yl]-propenone] as the compound, how does the IC50 ([2]; L. major) read?
Answer: The IC50 was 1200 nM.

Question: With `CN(C)CCNc1ccc(C(=O)/C=C/c2ccc3ccccc3n2)cc1` [B067, (E)-1-[4-(2-Dimethylamino-ethylamino)-phenyl]-3-quinolin-2-yl-propenone] as the compound, how does the IC50 ([2]; L. major) read?
Answer: The IC50 was 900 nM.

Question: For `COc1cc(/C=C/C(=O)c2cccc(N(C)CCN(C)C)c2)cc(OC)c1` [B047, (E)-3-(3,5-Dimethoxy-phenyl)-1-{3-[(2-dimethylamino-ethyl)-methyl-amino]-phenyl}-propenone], which “times more potent than LicA” value ([2]; Leishmania Major, dose-response curve FIG. 7) is on record?
Answer: The value was 10.

Question: Which “Metabolic turn-over in vitro” value [4] does the source give for `COc1ccccc1-c1ccc(N2CCN(C)CC2)c(/C=C/C(=O)c2ccccc2NS(=O)(=O)c2ccccc2)c1` [B185, (E)-N-(2-{3-[2′-Methoxy-4-(4-methyl-piperazin-1-yl)-biphenyl-3-yl]-acryloyl}-phenyl)-benzenesulfonamide] here?
Answer: The value was 0%.

Question: What about the IC50 ([2]; Leishmania major) of the same compound?
Answer: The IC50 was 200 nM.

Question: With `CN(C)Cc1ccccc1C(=O)/C=C/c1cc(N2CCN(C)CC2)ccc1Br` [B124, (E)-3-[2-Bromo-5-(4-methyl-piperazin-1-yl)-phenyl]-1-(2-dimethylaminomethyl-phenyl)-propenone] as the compound, how does the Solubility [3] read?
Answer: The Solubility was 2000 µg/mL (≈ 4.52 mM).

Question: For `COc1ccc(/C=C/C(=O)c2ccccc2N(C)CCN(C)C)cc1` [B023, (E)-1-{2-[(2-Dimethylamino-ethyl)-methyl-amino]-phenyl}-3-(4-methoxy-phenyl)-propenone], which Solubility [3] is on record?
Answer: The Solubility was 30600 µg/mL (≈ 90.4 mM).
